Data: US9708314B2, “Heterocyclic amide compound” (NISSAN CHEMICAL INDUSTRIES, LTD., priority 2013, dated 2017)

Assays:
Format in all cases: in vivo
Brassica campestris L. = assay: Test Example 4: effect on crop by application to foliage (diluvial soil, plastic box); details: Application herbicide amount 320 g/ha; effect on crop
Summary of the method: (§1)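 Emulsion-formulated compound, diluted to a predetermined g/ha dose, applied by small sprayer to leaves and stems of 14-day-old seedlings grown in sterilized diluvial soil. Effect rated on 0–5 herbicidal-ratio scale three weeks on.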

[1] = test system: directly sowed Oryza sativa; assay: as above; details: Application herbicide amount 320 g/ha; effect on crop
Summary of the method: as §1

Glycine max = assay: as above; details: Application herbicide amount 320 g/ha; effect on crop
Summary of the method: as §1

[2] = test system: Beta vulgaris ssp. vulgaris; assay: as above; details: Application herbicide amount 320 g/ha; effect on crop
Summary of the method: as §1

Zea mays = assay: as above; details: Application herbicide amount 320 g/ha; effect on crop
Summary of the method: as §1

[3] = test system: transplanted Oryza sativa; assay: Test Example 1: effect on crop, application before weed generation in submerged conditions; details: Application herbicide amount 320 g/ha; Seventeenth Table
Summary of the method: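 Rating, on a six-step scale from almost no effect (0) to almost completely withered (5), was made three weeks after pre-emergence treatment. Treatment was surface application to flooded pots at g/ha rates, with plants kept at 25° C. to 30° C.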

Cyperus difformis = assay: Test Example 3: herbicidal effect by application to foliage (Wagner pot, water depth 0.1-0.5 cm); details: Nineteenth Table; application to foliage; application herbicide amount 320 g/ha
Summary of the method: (§2)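 Three weeks after spraying, each species was graded 0–5 for herbicidal ratio, 5 being 90% or more. Application: water-diluted emulsifiable concentrate at a fixed g/ha to foliage of 14-day-old greenhouse (25–30 °C) plants in alluvial soil.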

[4] = test system: Echinochloa crus-galli var. crus-galli; assay: as above; details: Nineteenth Table; application to foliage; application herbicide amount 320 g/ha
Summary of the method: as §2

Leptochloa chinensis = assay: as above; details: Nineteenth Table; application to foliage; application herbicide amount 320 g/ha
Summary of the method: as §2

Cc1nnc(NC(=O)c2ccc(C(F)(F)F)n3c(CCS(C)(=O)=O)nnc23)o1 [1-085]
g (Brassica campestris L.): 4 (Herbicidal ratio of 70% or more and less than 90%) | d [1]: 4 (Herbicidal ratio of 70% or more and less than 90%) | c (Glycine max): 3 (Herbicidal ratio of 40% or more and less than 70%) | f [2]: 4 (Herbicidal ratio of 70% or more and less than 90%) | b (Zea mays): 3 (Herbicidal ratio of 40% or more and less than 70%) | a: transplanted Oryza sativa (effect on crop grade) [3]: 3 (Herbicidal ratio of 40% or more and less than 70%) | E (herbicidal effect grade) (Cyperus difformis): 5 (Herbicidal ratio of 90% or more (almost completely withered)) | H (herbicidal effect grade) [4]: 5 (Herbicidal ratio of 90% or more (almost completely withered)) | D (herbicidal effect grade) (Leptochloa chinensis): 5 (Herbicidal ratio of 90% or more (almost completely withered))

Cc1nnc(NC(=O)c2ccc(C(F)(F)F)n3c(N(C)c4ccccc4)nnc23)o1 [1-086]
g (Brassica campestris L.): 4 (Herbicidal ratio of 70% or more and less than 90%) | d [1]: 1 (Herbicidal ratio of 5% or more and less than 20%) | c (Glycine max): 1 (Herbicidal ratio of 5% or more and less than 20%) | f [2]: 5 (Herbicidal ratio of 90% or more (almost completely withered)) | b (Zea mays): 1 (Herbicidal ratio of 5% or more and less than 20%) | a: transplanted Oryza sativa (effect on crop grade) [3]: 5 (Herbicidal ratio of 90% or more (almost completely withered)) | E (herbicidal effect grade) (Cyperus difformis): 5 (Herbicidal ratio of 90% or more (almost completely withered)) | H (herbicidal effect grade) [4]: 5 (Herbicidal ratio of 90% or more (almost completely withered)) | D (herbicidal effect grade) (Leptochloa chinensis): 5 (Herbicidal ratio of 90% or more (almost completely withered))

CCCSc1nnc2c(C(=O)Nc3nnc(C)o3)ccc(C(F)(F)F)n12 [1-087]
g (Brassica campestris L.): 4 (Herbicidal ratio of 70% or more and less than 90%) | d [1]: 4 (Herbicidal ratio of 70% or more and less than 90%) | c (Glycine max): 4 (Herbicidal ratio of 70% or more and less than 90%) | f [2]: 5 (Herbicidal ratio of 90% or more (almost completely withered)) | b (Zea mays): 0 (Herbicidal ratio of 5% or less (almost no effect)) | a: transplanted Oryza sativa (effect on crop grade) [3]: 0 (Herbicidal ratio of 5% or less (almost no effect)) | E (herbicidal effect grade) (Cyperus difformis): 5 (Herbicidal ratio of 90% or more (almost completely withered)) | H (herbicidal effect grade) [4]: 5 (Herbicidal ratio of 90% or more (almost completely withered)) | D (herbicidal effect grade) (Leptochloa chinensis): 5 (Herbicidal ratio of 90% or more (almost completely withered))

Cc1nnc(NC(=O)c2ccc(C(F)(F)F)n3c(NC(C)C)nnc23)o1 [1-090]
g (Brassica campestris L.): 4 (Herbicidal ratio of 70% or more and less than 90%) | d [1]: 4 (Herbicidal ratio of 70% or more and less than 90%) | c (Glycine max): 1 (Herbicidal ratio of 5% or more and less than 20%) | f [2]: 5 (Herbicidal ratio of 90% or more (almost completely withered)) | b (Zea mays): 0 (Herbicidal ratio of 5% or less (almost no effect)) | a: transplanted Oryza sativa (effect on crop grade) [3]: 0 (Herbicidal ratio of 5% or less (almost no effect)) | E (herbicidal effect grade) (Cyperus difformis): 5 (Herbicidal ratio of 90% or more (almost completely withered)) | H (herbicidal effect grade) [4]: 5 (Herbicidal ratio of 90% or more (almost completely withered)) | D (herbicidal effect grade) (Leptochloa chinensis): 5 (Herbicidal ratio of 90% or more (almost completely withered))

CC(C)Sc1nnc2c(C(=O)Nc3nnco3)ccc(C(F)(F)F)n12 [1-091]
g (Brassica campestris L.): 5 (Herbicidal ratio of 90% or more (almost completely withered)) | d [1]: 4 (Herbicidal ratio of 70% or more and less than 90%) | c (Glycine max): 2 (Herbicidal ratio of 20% or more and less than 40%) | f [2]: 5 (Herbicidal ratio of 90% or more (almost completely withered)) | b (Zea mays): 0 (Herbicidal ratio of 5% or less (almost no effect)) | a: transplanted Oryza sativa (effect on crop grade) [3]: 0 (Herbicidal ratio of 5% or less (almost no effect)) | E (herbicidal effect grade) (Cyperus difformis): 5 (Herbicidal ratio of 90% or more (almost completely withered)) | H (herbicidal effect grade) [4]: 5 (Herbicidal ratio of 90% or more (almost completely withered)) | D (herbicidal effect grade) (Leptochloa chinensis): 5 (Herbicidal ratio of 90% or more (almost completely withered))
